How the values were obtained:
[1] = target: HRAS wild-type protein (Homo sapiens, UniProt P01112); experiment: Binding to HRAS by surface plasmon resonance (SPR), KD and KD ratio to KRAS; conditions: ratio of KD for HRAS wild-type protein to KD for KRAS
Method in brief: (§1)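 Running buffer contained 10 µM GDP and 10 mM MgCl2 to keep RAS in the GDP state, with 4% DMSO at pH 7.4. Compounds were flowed at 100 µL/min in 75 s steps of rising concentration over captured biotin-Avi RAS at 30°C. Sensorgrams were fitted 1:1 for KD.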

[2] = system: human lung cancer strain NCI-H441; format: cell-based
Method in brief: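 Step one: dispense the test compound in serial DMSO dilutions. Step three: add the reagent and measure […].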

[3] = target: GDP-bound NRAS wild-type protein (Homo sapiens, UniProt P01111); experiment: Binding to NRAS by surface plasmon resonance (SPR), KD and KD ratio to KRAS; conditions: ratio of KD for GDP-bound NRAS wild-type protein to KD for KRAS
Chain of GDP-bound NRAS wild-type protein (P01111 whole entry): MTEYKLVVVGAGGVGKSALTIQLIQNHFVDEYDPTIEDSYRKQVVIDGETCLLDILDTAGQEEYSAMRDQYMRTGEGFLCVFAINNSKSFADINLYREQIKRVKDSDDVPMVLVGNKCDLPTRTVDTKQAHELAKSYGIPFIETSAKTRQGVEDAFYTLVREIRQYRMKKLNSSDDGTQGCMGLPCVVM
Method in brief: as §1

Chain of HRAS wild-type protein (P01112 whole entry): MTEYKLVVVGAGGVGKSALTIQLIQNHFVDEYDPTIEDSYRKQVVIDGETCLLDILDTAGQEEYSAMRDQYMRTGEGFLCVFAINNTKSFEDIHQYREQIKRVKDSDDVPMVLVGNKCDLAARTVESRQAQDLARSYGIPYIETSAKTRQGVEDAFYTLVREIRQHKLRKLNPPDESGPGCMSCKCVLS

Structure (SMILES)	HRAS /KRAS [1]	IC50 [2] [nM]	NRAS /KRAS [3]
CCO[C@@H]1C[C@H]2C(=O)NC3(CC(C)(C)C3)C(=O)N(C)[C@@H](C3CCCC3)C(=O)N(C)[C@H](C(=O)N(C)CC)CC(=O)N(C)[C@@H](CC)C(=O)N[C@@H]([C@@H](C)CC)C(=O)N(C)CC(=O)N(C)[C@H]3C/C=C\CCN(C3=O)[C@@H](Cc3ccc(C(F)(F)F)cc3)C(=O)N(C)CC(=O)N[C@@H](CCc3ccc(Cl)c(Cl)c3)C(=O)N2C1 [PP2822]	A (a compound having 10 or more and less than 20 is denoted as A)	14.1	A (a compound having 10 or more and less than 20 is denoted as A)
CCO[C@@H]1C[C@H]2C(=O)NC3(CC(C)(C)C3)C(=O)N(C)[C@@H](C3CCCC3)C(=O)N(C)[C@H](C(=O)N(C)CC)CC(=O)N(C)[C@@H](CC)C(=O)N[C@@H]([C@@H](C)CC)C(=O)N(C)CC(=O)N(C)[C@H]3C/C=C\CCN(C3=O)[C@@H](Cc3ccc(C(F)(F)F)cc3)C(=O)N(C)CC(=O)N[C@@H](CCc3ccc(C(F)(F)F)c(Cl)c3)C(=O)N2C1 [PP2823]	A (a compound having 10 or more and less than 20 is denoted as A)	7.6	A (a compound having 10 or more and less than 20 is denoted as A)
CCO[C@@H]1C[C@H]2C(=O)NC3(CCC3)C(=O)N(C)[C@@H](C3CCCC3)C(=O)N(C)[C@H](C(=O)N(C)CC)CC(=O)N(C)[C@@H](CC3CCC3)C(=O)N[C@@H]([C@@H](C)CC)C(=O)N(C)CC(=O)N(C)[C@H]3C/C=C\CCN(C3=O)[C@@H](Cc3ccc(C(F)(F)F)cc3)C(=O)N(C)CC(=O)N[C@@H](CCc3ccc(C(F)(F)F)c(OC)c3)C(=O)N2C1 [PP2825]	B (a compound having 3 or more and less than 10 is denoted as B)	7.6	A (a compound having 10 or more and less than 20 is denoted as A)
CCO[C@@H]1C[C@H]2C(=O)NC3(CCC3)C(=O)N(C)[C@@H](C3CCCC3)C(=O)N(C)[C@H](C(=O)N(C)CC)CC(=O)N(C)[C@@H](CC3CCC3)C(=O)N[C@@H]([C@@H](C)CC)C(=O)N(C)CC(=O)N(C)[C@H]3C/C=C\CCN(C3=O)[C@@H](Cc3ccc(C(F)(F)F)cc3)C(=O)N(C)CC(=O)N[C@@H](CCc3ccc(C(F)(F)F)c(Cl)c3)C(=O)N2C1 [PP2826]	A (a compound having 10 or more and less than 20 is denoted as A)	8.6	A (a compound having 10 or more and less than 20 is denoted as A)
CCO[C@@H]1C[C@H]2C(=O)NC3(CC(C)(C)C3)C(=O)N(C)[C@@H](C3CCCC3)C(=O)N(C)[C@H](C(=O)N(C)CC)CC(=O)N(C)[C@@H](CC(C)C)C(=O)N[C@@H]([C@@H](C)CC)C(=O)N(C)CC(=O)N(C)[C@H]3C/C=C\CCN(C3=O)[C@@H](Cc3ccc(C(F)F)cc3)C(=O)N(C)CC(=O)N[C@@H](CCc3ccc(Cl)c(Cl)c3)C(=O)N2C1 [PP2827]	B (a compound having 3 or more and less than 10 is denoted as B)	21	A (a compound having 10 or more and less than 20 is denoted as A)
CCO[C@@H]1C[C@H]2C(=O)NC3(CC(C)(C)C3)C(=O)N(C)[C@@H](C3CCCC3)C(=O)N(C)[C@H](C(=O)N(C)CC)CC(=O)N(C)[C@@H](CC(C)C)C(=O)N[C@@H]([C@@H](C)CC)C(=O)N(C)CC(=O)N(C)[C@H]3C/C=C\CCN(C3=O)[C@@H](Cc3ccc(C(F)F)cc3)C(=O)N(C)CC(=O)N[C@@H](CCc3ccc(C(F)(F)F)c(OC)c3)C(=O)N2C1 [PP2828]	A (a compound having 10 or more and less than 20 is denoted as A)	5	A (a compound having 10 or more and less than 20 is denoted as A)

Reference: EP4603105A1, “PHARMACEUTICAL COMPOSITION CONTAINING CYCLIC COMPOUND HAVING SELECTIVE KRAS INHIBITORY EFFECT AGAINST HRAS AND NRAS” (CHUGAI SEIYAKU KABUSHIKI KAISHA, priority 2022, dated 2024)
